According to article PMC9130233, “An inhibitor of RORγ for chronic pulmonary obstructive disease treatment” (Scientific Reports, 2022):
Like-named read-outs stand apart in the source and are kept apart here.

What was measured:
[1] = tested on: IL-17A release in human PBMC; assay: IL-17A release, human PBMC, anti-CD3 + anti-CD28; assay type: cell-based
Text: Inhibition of RORγ by PCCR-1 was also estimated in a functional assay by measuring the inhibition of Th17 dependent cytokine IL-17A release in human peripheral blood mononuclear cells (PBMCs), mouse splenocytes and canine PBMC stimulated with their respective anti-CD3 and anti-CD28 antibodies.
Human whole blood from healthy subjects were procured from Clinical Research Unit, Sanpada. Clinical Research Center Glenmark (Plot No. D, 508, Turbhe, TTC Industrial Area, MIDC, Sanpada, Navi Mumbai, Maharashtra 400705, India). PBMCs were isolated using heparinized blood with Ficoll Histopaque. Briefly, the cells were seeded in 96-well plate pre-coated with human anti-CD3 mAb (10 µg/mL), post 30 min of compound treatment cells were stimulated with human anti-CD28 mAb (2 µg/mL). After 72 h of culture, the supernatant was collected for Th1/Th2 cytokines; IFN-γ, IL-2, IL-4 and IL-10 and measured by ELISA. For Th17 polarization assay, the following cytokine cocktail was used: IL-1β (10 ng/ml), IL-23(10 ng/ml), IL-6 (50 ng/ml), TGF-β1 (3 ng/ml), IL-2 (20U/ml) and supernatants were used for measuring IL-17 and IL-22 by ELISA.

[2] = tested on: IL-17 release in mouse peritoneal neutrophils; assay: IL-17 release, mouse peritoneal neutrophils, LPS; assay type: cell-based; conditions: Neutrophil, n = 2, read-out: potency, IL-17 release inhibition
Procedure: The peritoneal neutrophils or macrophages were isolated from C57BL/6 male mice or BALB/c female mice (6–8 wks; 18–22 g) injected with 3% or 4% thioglycollate broth. After 4 h or 4 days, RPMI medium was injected into the peritoneal cavity of mouse and peritoneal lavage was collected. The lavage was pooled and spun at 800 rpm for 10 min. The pellet was re-suspended in 1X Gey’s solution for 5 min followed by PBS wash. In case of neutrophils, the isolated cells were seeded in 48 well plate for 1.5 h. After 1.5 h, the supernatant containing peritoneal neutrophils were collected and centrifuged at 2000 rpm for 10 min and the pellet were re-suspended in 2% RPMI. In case of isolated peritoneal macrophages, the cells were seeded in 48 well plate for 3–4 h followed by PBS wash. Both the neutrophils and macrophages were treated with PCCR-1 in 2% RPMI for 1 h followed by stimulation with 10 µg/ml or 5 µg/ml of LPS for 18 h or 24 h. The supernatant collected for IL-17 estimation by ELISA.

mouse RORγ = tested on: T1, mouse RORγ; assay: Dissociation assay, jump dilution method (TR-FRET), mouse; assay type: binding
T1 construct: RORγt-LBD region 264-516aa; made in house
Procedure: To understand the inverse agonist behavior at the molecular level, interaction with the nuclear receptor RORγ was analyzed in binding assays by estimating its dissociation constant (Koff) and half-life (t1/2). The binding of a ligand stabilizes the conformation of the LBD while binding of a cofactor modifies receptor activity. Binding reversibility was evaluated by adding an excess of competing ligand in the FRET assay and evaluating the displacement of the tracer with inhibitor. Binding of the PCCR-1 with the LBD caused reduction in FRET on antibody addition forming a GST (Glutathione S-transferases) tagged RORγ-antibody complex. The dissociation assay was performed using the jump dilution method with PCCR-1 at a concentration showing maximum binding potency or IC90. The dissociation was tested on addition of an excess of a competitive ligand, the tracer.

RORα [3] = tested on: T2, RORα; assay: TR-FRET selectivity binding assay, RORα; design: species or system human
T2 construct: purchased Invitrogen
Text: (§1) Based on the homology of the ligand binding domains, 3 different isoforms of ROR (hRORα, hRORβ and hRORγ) are reported. Small variations in the LBD regions possibly lead to differences in competitive binding between the nuclear receptors of the ROR isoforms (Fig. 1b). Similar to the assessment of RORγ binding assay, TR-FRET binding assays were also used to assess the affinity of PCCR-1 for other ROR isoforms. […] This was reconfirmed in cellular functional assays for the selected isoforms and nuclear receptors using Gal4 DBD with luciferase reporter system from Indigo (PA, USA). […] In addition, both cellular agonist and antagonist effects as well as for enzyme activity were evaluated with a known reference compound for each target, using a radiolabeled method (Eurofins Cerep, France, Table 1).
(§2) For selectivity, the ROR isoforms RORα, FXR, LXRα, LXRβ, RXR, RARα were incubated with compound for 60 min at 22 °C followed by detection mix containing respective agonist (All trans retinoic acid for RARα, T0901317 for LXRα, LXRβ, 9-cis Retinoic acid for RXR, GW-4064 for FXR) and coactivator peptide (FD22 for RORα, PGC1α for RXR, RARα, TRAP220 for LXRα, LXRβ, SRC2-2 for FXR) and Tb-anti GST antibody prepared in assay buffer were added into a 384-well white plate. Reading taken after overnight incubation and the data analysis done as per the protocol mentioned in RORγt-LBD and co-activator ligand binding assay.

FXR = tested on: T3, FXR; assay: TR-FRET selectivity binding assay, FXR
T3 construct: purchased Invitrogen
Text: as §1, §2

RORα [4] = molecular target: RORα (Homo sapiens, UniProt P35398); assay: Transactivation assay, Gal4 DBD luciferase reporter (Indigo); assay type: cell-based
Sequence of RORα (Homo sapiens, UniProt P35398) (P35398 272-523 limits assumed): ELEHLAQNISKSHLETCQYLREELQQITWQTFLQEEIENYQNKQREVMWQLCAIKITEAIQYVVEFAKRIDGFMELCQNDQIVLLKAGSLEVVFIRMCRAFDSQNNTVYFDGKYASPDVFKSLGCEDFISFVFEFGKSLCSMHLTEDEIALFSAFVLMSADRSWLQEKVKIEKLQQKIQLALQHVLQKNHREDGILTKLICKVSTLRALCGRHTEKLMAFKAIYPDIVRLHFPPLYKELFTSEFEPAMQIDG
Text: as §1

hERG = hERG (Homo sapiens, UniProt Q12809); assay: hERG; conditions: rated moderate
Sequence of hERG (Q12809 whole entry): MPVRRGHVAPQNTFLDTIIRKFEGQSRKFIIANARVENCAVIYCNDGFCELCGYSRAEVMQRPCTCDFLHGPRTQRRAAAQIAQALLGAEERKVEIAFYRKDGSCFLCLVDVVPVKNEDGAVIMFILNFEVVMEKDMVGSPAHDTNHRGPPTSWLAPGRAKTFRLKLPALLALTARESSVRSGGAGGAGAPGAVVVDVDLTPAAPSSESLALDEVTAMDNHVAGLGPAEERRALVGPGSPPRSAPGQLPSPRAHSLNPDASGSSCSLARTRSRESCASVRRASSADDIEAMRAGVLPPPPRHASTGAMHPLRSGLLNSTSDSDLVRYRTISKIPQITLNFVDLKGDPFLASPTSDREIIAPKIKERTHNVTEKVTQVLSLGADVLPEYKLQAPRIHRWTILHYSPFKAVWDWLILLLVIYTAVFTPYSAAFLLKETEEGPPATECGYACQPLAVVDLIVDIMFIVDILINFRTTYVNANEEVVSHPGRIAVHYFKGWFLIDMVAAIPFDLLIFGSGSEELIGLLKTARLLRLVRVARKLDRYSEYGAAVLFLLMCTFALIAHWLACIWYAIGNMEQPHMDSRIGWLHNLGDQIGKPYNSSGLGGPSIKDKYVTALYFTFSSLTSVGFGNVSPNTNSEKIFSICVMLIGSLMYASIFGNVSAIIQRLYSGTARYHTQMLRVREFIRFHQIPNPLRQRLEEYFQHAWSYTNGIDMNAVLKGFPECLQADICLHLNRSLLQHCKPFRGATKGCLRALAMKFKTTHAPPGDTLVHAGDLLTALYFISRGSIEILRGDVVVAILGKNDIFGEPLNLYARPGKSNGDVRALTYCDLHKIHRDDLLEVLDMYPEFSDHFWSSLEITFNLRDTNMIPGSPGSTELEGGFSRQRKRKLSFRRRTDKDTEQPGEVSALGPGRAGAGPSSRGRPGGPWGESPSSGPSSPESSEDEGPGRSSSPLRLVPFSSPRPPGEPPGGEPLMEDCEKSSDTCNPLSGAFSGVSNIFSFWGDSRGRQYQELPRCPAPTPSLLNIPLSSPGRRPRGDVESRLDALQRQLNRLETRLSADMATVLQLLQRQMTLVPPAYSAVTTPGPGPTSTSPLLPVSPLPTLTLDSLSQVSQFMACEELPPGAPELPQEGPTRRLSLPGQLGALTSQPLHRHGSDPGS

[5] = tested on: IL-17 release from COPD lung BALf cells; assay: IL-17 release, BALf cells from COPD patients; assay type: cell-based; conditions: Homo sapiens; TCR stimulated, n = 10; read-out: IL-17 IC50, COPD patient's sample: BAL
Procedure: Whole blood and BAL samples from COPD patients were obtained from Multispecialty hospital, Mumbai post approval from ethics committee and informed consent of patients. 30–40 mL Broncho alveolar lavage (BALf) was collected per patient and stored in ice. Blood was collected in heparin vaccutainer as per approved protocol. Both the samples were processed within 2 h of collection. BALF was passed through 100-µm and 40-µm cell strainer to remove debris and mucus, the samples were centrifuged and the cells were re-suspended in RPMI 1640 complete medium. PBMCs from blood were isolated using Histopaque-1077 by density gradient centrifugation. Isolated BAL cells and PBMCs were seeded in 96 well coated with 10 µg/ml anti-CD3 and 2 µg/ml anti-CD2. Cells were further treated with different concentration of test compound for 60 min followed by stimulation with 20 µg/ml anti-CD28 and incubated for 48–72 h. The supernatant was used for estimating IL-17 by ELISA.

Molecule `CCn1c(C(C)(C)Oc2ccc(F)cc2F)nc2cc(NC(=O)Cc3ccc(S(=O)(=O)CC)cc3)ccc21` [PCCR-1] has an IC50 ([1]; TCR activating conditions, comparative Th1/Th2/Th17 study (Fig. 3A), read-out: hIL-17 (IL-17A) IC50) of 94.3 nM, an IC50 ([1]; anti-CD3 + anti-CD28, n = 24 (Fig. 1D), read-out: Cellular activity: Human IC50, IL-17A release) of 117 nM and an IC50 [2] of 245 nM. For the same molecule, the “dissociation from the target protein” value (mouse RORγ; mouse RORγ, jump dilution) was 20–25%, the “t1/2 (target residence time)” value (mouse RORγ; mouse RORγ, jump dilution, PCCR-1 at IC90) was 4.69 h and the absolute dissociation (mouse RORγ; mouse, till 3 h of measurement) was 50%. The “% Inhibition RORα” value (RORα [3]; 1 µM) was 20.91%, the “% Inhibition RORα” value (RORα [3]; 10 µM) was 19.82% and the “Fold over hRORγ, RORα” value (RORα [3]; vs RORg IC50 31.87 nM) was over 313.7 fold. The “% Inhibition FXR” value (FXR; 1 µM) was 21.45%, the “% Inhibition FXR” value (FXR; 10 µM) was 19.81% and the “Fold over hRORγ, FXR” value (FXR; vs RORg IC50 31.87 nM) was over 313.7 fold. For the same molecule, the “effect in transactivation assays for RORα inhibition” value (RORα [4]) was “no effect”, the IC50 (hERG) was 6000 nM and the IC50 [5] was 522 nM.
